Values quoted from earlier work as cited in patent US6682761B2, “Water-insoluble drug particle process” (RTP Pharma, Inc., priority 2000, dated 2004).

Conditions: in vivo

- plasma half-life: about 20 hours
Structure (SMILES): CC(C)(Oc1ccc(C(=O)c2ccc(Cl)cc2)cc1)C(=O)O [Fenofibric acid]
